In patent US7122576B2, “Carbamate compounds for use in preventing or treating bipolar disorder” (priority 2001, dated 2006):

System: hippocampal kindled rats
Assay: Hippocampal kindled rat model
Type: in vivo, Sprague-Dawley rats
Design: After-Discharge Threshold: unit not given here
Details: for Mean Seizure Score: seizure score scale 1-5
Protocol: Hippocampal Kindled Rat Model
In the hippocampal kindling model (Lothman E W, et al., Epilepsy Res., 1988, 2(6) 367–79), adult male Sprague-Dawley rats are surgically implanted with bipolar electrodes. Seizure score is assessed as follows: (1) mouth and facial movements; (2) above symptoms plus head nodding; (3) above symptoms plus forelimb clonus; (4) above symptoms plus rearing; and (5) above symptoms plus falling.

[1] = 50 mg/kg intraperitoneally, n=8
[2] = 100 mg/kg intraperitoneally, n=8
[3] = 200 mg/kg intraperitoneally, n=8
[4] = 300 mg/kg intraperitoneally, 0.25 hr after dose, n=2
[5] = 300 mg/kg intraperitoneally, 1 hr after dose, n=2
[6] = 300 mg/kg intraperitoneally, 2 hr after dose, n=2
[7] = 300 mg/kg intraperitoneally, 4 hr after dose, n=2

NC(=O)OC[C@H](OC(N)=O)c1ccccc1Cl [enantiomer of Formula (Ib)]
toxicity of dose (50 mg/kg intraperitoneally): nontoxic
% Protected [1]: 12.50%
After-Discharge Duration [1]: 75.88 s
Mean Seizure Score [1]: 3.75
effect on after-discharge threshold and duration (50 mg/kg intraperitoneally, n=8 per group, over approximately a 3 hour time period): time-dependent reduction in after-discharge threshold and duration
% Protected [2]: 33.33%
After-Discharge Duration [2]: 53.17 s
Mean Seizure Score [2]: 3
% Protected [3]: 87.50%
After-Discharge Duration [3]: 42 s
Mean Seizure Score [3]: 1.63
toxicity of dose (300 mg/kg intraperitoneally): nontoxic
After-Discharge Duration [4]: 44 s
After-Discharge Threshold [4]: 105
Mean Seizure Score [4]: 2.5
After-Discharge Duration [5]: 50 s
After-Discharge Threshold [5]: >200
Mean Seizure Score [5]: 1.5
After-Discharge Duration [6]: 53 s
After-Discharge Threshold [6]: >200
Mean Seizure Score [6]: 1.5
After-Discharge Duration [7]: 111 s
After-Discharge Threshold [7]: 200
Mean Seizure Score [7]: 2.5
effect against the expression of Stage 5 seizures (300 mg/kg intraperitoneally, n=2, over a 4 hour time period): effective
ED50 (Rattus norvegicus, ip, dose range 50 to 200 mg/kg, intraperitoneally, 95% confidence interval 67.9 to 189.8 mg/kg, read-out: calculated ED50 value for reduction of the seizure score from 5 to 3 or less): 112 mg/kg
anti-kindling effects (hippocampal-kindled rat model): potent anti-kindling effects
